Laboratory results as given in ChEMBL document CHEMBL1201862, “PubChem BioAssay data set” (2004).
“And” between values parts separate entries of the source, which are not always exact repeats. Equal values may be shown once. The source made the active and inactive calls. Peptide text beside a SMILES is read from it. * marks the point of attachment. Cbz = O=C(OCc1ccccc1)*; CH2Cl = ClC*

How the values were obtained:
Vero [1] = assay: cells; format: functional, cell-based; conditions: Chlorocebus sabaeus
Vero [2] = assay: cells; format: functional; conditions: Chlorocebus sabaeus
[3] = target: T1, ATP-dependent translocase ABCB1 (Homo sapiens, UniProt P08183); assay: ABCG2 efflux pump inhibitor potency, dose response, Ig-MXP3 cells, JC-1, flow cytometry, set 2 (AID 504566); format: functional; conditions: read-out: EC50_MICROM_;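 also: flow cytometry median green fluorescence of retained JC-1 dye; potency of efflux pump inhibition measured as rising substrate retention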
T1 sequence (P08183 whole entry): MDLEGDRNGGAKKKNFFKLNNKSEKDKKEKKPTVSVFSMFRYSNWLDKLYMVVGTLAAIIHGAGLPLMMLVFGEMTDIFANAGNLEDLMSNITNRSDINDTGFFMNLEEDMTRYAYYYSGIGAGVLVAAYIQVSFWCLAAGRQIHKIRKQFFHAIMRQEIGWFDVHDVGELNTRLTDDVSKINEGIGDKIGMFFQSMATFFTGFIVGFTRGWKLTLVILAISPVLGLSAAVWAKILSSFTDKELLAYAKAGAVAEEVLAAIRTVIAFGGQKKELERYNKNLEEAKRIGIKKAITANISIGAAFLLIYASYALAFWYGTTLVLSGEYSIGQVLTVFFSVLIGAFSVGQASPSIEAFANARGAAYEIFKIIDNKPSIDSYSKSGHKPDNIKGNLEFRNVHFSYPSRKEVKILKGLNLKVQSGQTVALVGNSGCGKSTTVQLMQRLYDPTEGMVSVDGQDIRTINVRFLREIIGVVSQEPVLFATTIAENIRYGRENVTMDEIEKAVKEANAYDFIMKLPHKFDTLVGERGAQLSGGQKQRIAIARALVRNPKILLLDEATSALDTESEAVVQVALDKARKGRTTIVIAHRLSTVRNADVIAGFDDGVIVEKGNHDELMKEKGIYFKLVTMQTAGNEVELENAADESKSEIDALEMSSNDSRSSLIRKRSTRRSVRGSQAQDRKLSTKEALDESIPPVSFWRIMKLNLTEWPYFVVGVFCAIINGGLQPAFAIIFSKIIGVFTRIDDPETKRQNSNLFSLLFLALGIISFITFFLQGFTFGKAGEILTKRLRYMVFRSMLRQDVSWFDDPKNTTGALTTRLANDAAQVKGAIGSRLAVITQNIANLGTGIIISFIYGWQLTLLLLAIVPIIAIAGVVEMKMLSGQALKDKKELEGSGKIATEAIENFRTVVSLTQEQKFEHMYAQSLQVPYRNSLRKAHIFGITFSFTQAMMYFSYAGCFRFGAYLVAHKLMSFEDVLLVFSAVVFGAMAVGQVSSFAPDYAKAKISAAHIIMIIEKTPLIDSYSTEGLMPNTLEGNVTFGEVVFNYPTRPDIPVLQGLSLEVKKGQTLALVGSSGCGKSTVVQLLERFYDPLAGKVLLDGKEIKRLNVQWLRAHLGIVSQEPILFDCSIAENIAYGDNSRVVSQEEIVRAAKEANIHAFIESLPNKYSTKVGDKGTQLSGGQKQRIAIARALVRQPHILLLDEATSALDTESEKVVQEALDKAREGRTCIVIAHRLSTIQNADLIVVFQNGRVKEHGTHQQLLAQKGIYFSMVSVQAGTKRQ

[4] = target: T1, ATP-dependent translocase ABCB1; assay: ABCB1 efflux inhibitor potency, dose response, Jurkat-DNR cells, JC-1, flow cytometry, set 2 (AID 504569); format: functional; conditions: read-out: EC50_MICROM_;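 also: potency of pump inhibitors that raise cellular JC-1 green fluorescence up to the nicardipine level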
HEK293 [5] = assay: cells; conditions: Homo sapiens
HEK293 [6] = assay: cells; conditions: Homo sapiens; remark: listed apart in the source
[7] = HEp-2 cell cytotoxicity, dose response, cytotoxicity control for RSV inhibitor project, HTS (AID 2410); format: functional; conditions: human respiratory syncytial virus
[8] = target: T2, Microphthalmia-associated transcription factor (Homo sapiens, UniProt O75030); assay: TRPM1 promoter luciferase signal decrease, dose response, MITF inhibitor project, cell-based, SK-MEL-5, cherry-picked, set 3 (AID 493073); format: functional
T2 sequence (O75030 whole entry): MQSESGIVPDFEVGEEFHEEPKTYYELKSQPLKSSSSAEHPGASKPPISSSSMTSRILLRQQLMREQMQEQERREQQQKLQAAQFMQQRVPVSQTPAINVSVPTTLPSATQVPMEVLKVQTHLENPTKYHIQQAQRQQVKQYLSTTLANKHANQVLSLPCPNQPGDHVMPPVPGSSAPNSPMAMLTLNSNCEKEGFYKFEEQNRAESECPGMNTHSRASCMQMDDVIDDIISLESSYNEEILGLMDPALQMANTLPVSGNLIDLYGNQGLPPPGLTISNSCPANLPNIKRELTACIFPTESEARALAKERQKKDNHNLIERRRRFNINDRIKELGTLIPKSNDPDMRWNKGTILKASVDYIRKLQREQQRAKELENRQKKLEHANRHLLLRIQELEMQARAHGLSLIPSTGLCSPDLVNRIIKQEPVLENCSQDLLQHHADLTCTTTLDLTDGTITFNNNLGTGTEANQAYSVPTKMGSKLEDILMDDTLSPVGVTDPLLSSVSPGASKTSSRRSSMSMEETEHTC

[9] = target: T3, Voltage-gated N-type calcium channel alpha-1B subunit/Amyloid beta A4 precursor protein-binding family A member 1 (Homo sapiens, UniProt Q00975+Q02410); format: protein assay
[10] = target: T3, Voltage-gated N-type calcium channel alpha-1B subunit/Amyloid beta A4 precursor protein-binding family A member 1; format: protein assay; remark: listed apart in the source
Beta-lactamase [11] = target: Beta-lactamase (Pseudomonas aeruginosa, UniProt Q79MP6);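 also: biochemical dose-response test of metallo-beta-lactamase enzyme inhibition, read out by epi-absorbance; purified recombinant IMP-1 metallo-beta-lactamase with nitrocefin as substrate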
Beta-lactamase [12] = target: Beta-lactamase (Salmonella choleraesuis (strain SC-B67), UniProt Q5J463)
[13] = target: T4, Small ubiquitin-related modifier 1 (Homo sapiens, UniProt P63165); assay: inhibitors of SUMO1 peptide binding, dose response, biochemical, fluorescence polarization, uHTS hits (AID 624382); format: functional; conditions: read-out: IC50_Mean
T4 sequence (P63165 whole entry): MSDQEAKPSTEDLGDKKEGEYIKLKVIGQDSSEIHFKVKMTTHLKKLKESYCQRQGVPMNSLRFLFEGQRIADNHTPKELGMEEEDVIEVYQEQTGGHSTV

[14] = target: T4, Small ubiquitin-related modifier 1; assay: inhibitors of SUMO1 partner interactions, dose response, biochemical, FRET (AID 624383); format: functional; conditions: read-out: IC50_Mean
[15] = target: Ras and Rab interactor 1/Tyrosine-protein kinase ABL1 (Homo sapiens, UniProt P00519+Q13671); format: functional;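 also: biochemical TR-FRET dose-response test measuring inhibition of binding between Rin1 and Abl proteins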
[16] = target: T5, Adenosylmethionine-8-amino-7-oxononanoate aminotransferase (Mycobacterium tuberculosis, UniProt P9WQ81); assay: Mycobacterium tuberculosis BioA enzyme inhibitor Measured in Biochemical System Using Plate Reader - 2163-02_Inhibitor_Dose_CherryPick_Activity.; format: functional, Mycobacterium tuberculosis UT205
T5 sequence (P9WQ81 whole entry): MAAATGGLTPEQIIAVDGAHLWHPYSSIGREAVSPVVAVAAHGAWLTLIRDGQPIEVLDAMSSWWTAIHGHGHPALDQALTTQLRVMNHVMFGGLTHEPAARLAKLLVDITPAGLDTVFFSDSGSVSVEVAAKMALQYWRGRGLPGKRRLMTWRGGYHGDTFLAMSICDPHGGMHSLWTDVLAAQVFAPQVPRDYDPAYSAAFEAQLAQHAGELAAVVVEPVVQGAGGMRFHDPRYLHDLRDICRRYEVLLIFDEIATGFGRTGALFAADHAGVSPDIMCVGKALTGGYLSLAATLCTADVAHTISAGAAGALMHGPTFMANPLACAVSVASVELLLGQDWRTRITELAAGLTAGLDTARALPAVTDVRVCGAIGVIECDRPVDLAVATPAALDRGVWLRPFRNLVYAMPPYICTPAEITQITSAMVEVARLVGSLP

Mu-type opioid receptor = Mu-type opioid receptor (Homo sapiens, UniProt P35372); format: functional, cell-based;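 also: U2OS cells with beta-arrestin recruitment to OPRM1 by beta-gal complementation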
Mu-type opioid receptor, sequence (P35372 whole entry): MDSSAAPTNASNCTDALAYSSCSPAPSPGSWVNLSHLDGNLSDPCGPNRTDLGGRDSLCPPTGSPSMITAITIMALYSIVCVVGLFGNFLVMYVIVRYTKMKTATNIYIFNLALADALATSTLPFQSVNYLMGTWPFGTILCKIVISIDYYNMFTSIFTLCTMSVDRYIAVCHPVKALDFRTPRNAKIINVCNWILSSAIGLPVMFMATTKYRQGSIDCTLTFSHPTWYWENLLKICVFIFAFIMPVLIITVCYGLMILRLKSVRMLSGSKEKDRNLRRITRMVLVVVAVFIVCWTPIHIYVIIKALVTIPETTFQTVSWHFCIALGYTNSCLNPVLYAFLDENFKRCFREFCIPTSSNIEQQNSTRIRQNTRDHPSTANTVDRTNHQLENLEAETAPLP

[17] = target: 5-hydroxytryptamine receptor 2A (Mus musculus, UniProt P35363); format: functional, cell-based;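 also: CHO-K1 cells with tagged receptor and beta-arrestin; agonist potency measured as compound-induced activation of the receptor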
5-hydroxytryptamine receptor 2A, sequence (P35363 whole entry): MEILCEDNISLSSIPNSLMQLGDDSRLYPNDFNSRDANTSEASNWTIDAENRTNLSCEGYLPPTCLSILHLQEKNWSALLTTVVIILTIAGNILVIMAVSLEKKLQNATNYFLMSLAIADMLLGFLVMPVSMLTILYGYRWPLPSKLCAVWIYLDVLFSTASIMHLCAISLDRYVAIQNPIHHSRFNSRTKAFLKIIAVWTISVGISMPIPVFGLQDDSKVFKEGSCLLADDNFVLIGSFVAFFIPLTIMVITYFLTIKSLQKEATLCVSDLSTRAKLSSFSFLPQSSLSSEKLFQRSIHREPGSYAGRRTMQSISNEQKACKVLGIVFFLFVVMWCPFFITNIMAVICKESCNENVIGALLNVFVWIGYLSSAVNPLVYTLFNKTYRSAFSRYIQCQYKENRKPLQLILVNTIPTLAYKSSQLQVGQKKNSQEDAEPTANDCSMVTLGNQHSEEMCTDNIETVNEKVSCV

[18] = insulin promoter down-regulators in MIN6 cells, imaging, high-content screening, mouse beta cells (AID 1628); format: functional
[19] = cytotoxicity in MIN6 insulinoma cells, dose response, cytotoxicity control, cell-based, mouse insulinoma (AID 2122); format: functional;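 also: confirmatory high-throughput counterscreen run to flag cytotoxic compounds; mouse MIN-6 beta cells carrying an insulin promoter eGFP reporter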
[20] = target: T6, Ubiquitin-conjugating enzyme E2 N (Homo sapiens, UniProt P61088); format: functional;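 also: Dose-response confirmation in a TR-FRET assay detecting UBC13-driven polyubiquitin chain formation, inhibition measured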
T6 sequence (P61088 whole entry): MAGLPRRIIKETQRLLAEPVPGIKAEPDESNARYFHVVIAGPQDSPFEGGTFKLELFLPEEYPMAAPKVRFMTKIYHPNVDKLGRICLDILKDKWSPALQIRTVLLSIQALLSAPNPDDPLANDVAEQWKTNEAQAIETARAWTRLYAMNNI

Fatty acid synthase [21] = target: T7, Fatty acid synthase (Homo sapiens, UniProt P49327); assay: FAS thioesterase domain inhibitors, dose response, biochemical, endpoint fluorescence intensity, uHTS hits (AID 624327); format: functional;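 also: fluorescence from hydrolysis of an O-methyl fluorescein acyl ester substrate by the enzyme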
T7 sequence (P49327 whole entry, the tested form may be a part): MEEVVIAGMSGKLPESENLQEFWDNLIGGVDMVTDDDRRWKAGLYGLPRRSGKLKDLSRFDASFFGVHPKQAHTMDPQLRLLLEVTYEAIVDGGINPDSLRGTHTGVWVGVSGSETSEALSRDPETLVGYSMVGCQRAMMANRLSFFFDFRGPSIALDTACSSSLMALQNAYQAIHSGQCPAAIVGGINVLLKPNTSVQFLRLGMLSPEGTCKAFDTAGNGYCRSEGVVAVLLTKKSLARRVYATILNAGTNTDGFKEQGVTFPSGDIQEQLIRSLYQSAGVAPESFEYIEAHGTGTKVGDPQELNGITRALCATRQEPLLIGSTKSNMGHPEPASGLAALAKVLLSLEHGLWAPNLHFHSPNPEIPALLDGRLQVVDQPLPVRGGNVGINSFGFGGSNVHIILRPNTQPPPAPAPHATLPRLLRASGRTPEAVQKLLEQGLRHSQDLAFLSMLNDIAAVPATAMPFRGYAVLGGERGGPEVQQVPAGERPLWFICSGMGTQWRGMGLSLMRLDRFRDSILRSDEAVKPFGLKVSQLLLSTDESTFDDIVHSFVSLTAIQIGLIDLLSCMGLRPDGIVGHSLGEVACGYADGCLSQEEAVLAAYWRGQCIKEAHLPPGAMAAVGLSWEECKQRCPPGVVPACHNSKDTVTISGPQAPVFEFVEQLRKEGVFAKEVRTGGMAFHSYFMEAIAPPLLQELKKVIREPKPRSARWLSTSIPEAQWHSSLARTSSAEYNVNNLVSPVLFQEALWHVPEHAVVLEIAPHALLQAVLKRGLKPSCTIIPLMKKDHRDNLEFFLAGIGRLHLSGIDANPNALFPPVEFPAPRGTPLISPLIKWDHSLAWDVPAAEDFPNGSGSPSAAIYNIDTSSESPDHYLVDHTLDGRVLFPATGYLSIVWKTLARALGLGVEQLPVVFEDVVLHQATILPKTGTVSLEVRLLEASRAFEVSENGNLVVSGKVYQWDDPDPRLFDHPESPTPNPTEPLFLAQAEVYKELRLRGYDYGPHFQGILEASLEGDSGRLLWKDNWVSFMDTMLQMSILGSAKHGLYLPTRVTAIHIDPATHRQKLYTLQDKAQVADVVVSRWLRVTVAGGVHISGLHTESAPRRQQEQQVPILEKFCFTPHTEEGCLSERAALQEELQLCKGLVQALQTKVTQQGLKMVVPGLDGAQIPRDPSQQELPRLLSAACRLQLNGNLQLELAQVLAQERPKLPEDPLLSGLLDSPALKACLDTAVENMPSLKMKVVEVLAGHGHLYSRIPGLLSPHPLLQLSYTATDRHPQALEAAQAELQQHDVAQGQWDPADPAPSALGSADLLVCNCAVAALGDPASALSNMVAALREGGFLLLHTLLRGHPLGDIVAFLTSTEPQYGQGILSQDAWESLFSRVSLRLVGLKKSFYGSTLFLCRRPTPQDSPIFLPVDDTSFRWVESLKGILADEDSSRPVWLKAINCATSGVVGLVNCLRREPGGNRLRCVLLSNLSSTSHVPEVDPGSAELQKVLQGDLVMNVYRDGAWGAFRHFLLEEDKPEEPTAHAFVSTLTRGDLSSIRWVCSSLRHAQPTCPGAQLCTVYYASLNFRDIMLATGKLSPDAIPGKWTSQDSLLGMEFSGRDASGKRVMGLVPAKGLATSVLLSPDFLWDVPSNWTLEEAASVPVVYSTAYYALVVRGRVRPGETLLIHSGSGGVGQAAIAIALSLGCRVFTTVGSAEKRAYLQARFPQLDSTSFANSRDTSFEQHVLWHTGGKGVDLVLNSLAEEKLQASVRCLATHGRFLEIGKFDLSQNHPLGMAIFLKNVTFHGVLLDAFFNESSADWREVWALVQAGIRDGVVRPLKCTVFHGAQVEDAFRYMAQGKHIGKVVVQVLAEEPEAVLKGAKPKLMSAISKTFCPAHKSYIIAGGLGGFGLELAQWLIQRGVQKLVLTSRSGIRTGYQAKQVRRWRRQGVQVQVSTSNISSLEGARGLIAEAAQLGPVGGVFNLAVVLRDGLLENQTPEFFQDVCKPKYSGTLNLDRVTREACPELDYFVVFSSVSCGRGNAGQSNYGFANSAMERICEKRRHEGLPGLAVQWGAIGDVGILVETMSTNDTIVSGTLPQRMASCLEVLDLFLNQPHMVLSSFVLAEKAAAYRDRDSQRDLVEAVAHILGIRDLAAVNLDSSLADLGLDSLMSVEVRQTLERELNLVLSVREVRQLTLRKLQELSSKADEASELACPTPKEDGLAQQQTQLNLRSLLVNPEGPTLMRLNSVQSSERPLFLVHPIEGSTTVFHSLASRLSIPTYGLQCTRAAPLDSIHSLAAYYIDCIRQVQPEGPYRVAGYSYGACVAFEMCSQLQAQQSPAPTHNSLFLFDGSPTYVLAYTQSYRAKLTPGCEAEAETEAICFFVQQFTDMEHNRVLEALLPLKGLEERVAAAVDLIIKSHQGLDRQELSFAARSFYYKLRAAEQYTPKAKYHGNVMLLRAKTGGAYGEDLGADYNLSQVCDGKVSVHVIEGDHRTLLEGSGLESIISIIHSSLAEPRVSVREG

Fatty acid synthase [22] = target: T7, Fatty acid synthase; assay: FAS thioesterase domain inhibitors, dose response, biochemical, kinetic fluorescence intensity (AID 624326); format: functional;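 also: rate of fluorescence rise from hydrolysis of a fluorogenic O-methyl fluorescein ester substrate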
[23] = target: DNA dC->dU-editing enzyme APOBEC-3A (Homo sapiens, UniProt P31941); assay: Dose Response confirmation of small molecule APOBEC3A DNA Deaminase Inhibitors via a fluorescence-based single-stranded DNA deaminase assay. [Related pubchem assays (depositor defined):AID493011, AID493024]; format: functional
DNA dC->dU-editing enzyme APOBEC-3A, sequence (P31941 whole entry): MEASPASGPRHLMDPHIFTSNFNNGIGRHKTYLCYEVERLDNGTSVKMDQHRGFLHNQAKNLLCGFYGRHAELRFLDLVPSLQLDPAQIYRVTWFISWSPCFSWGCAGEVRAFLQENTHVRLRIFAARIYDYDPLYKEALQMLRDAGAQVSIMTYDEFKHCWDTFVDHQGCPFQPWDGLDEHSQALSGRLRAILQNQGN

[24] = target: DNA dC->dU-editing enzyme APOBEC-3G (Homo sapiens, UniProt Q9HC16); format: functional;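 also: Dose-response counterscreen measuring inhibition of APOBEC3G DNA deaminase activity, run while confirming APOBEC3A inhibitors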

## CC(C)CC(NC(=O)OCc1ccccc1)C(=O)NC(Cc1ccccc1)C(=O)CCl (stereo not drawn) (Cbz-Leu-Phe-CH2Cl; configuration not given here)
Vero [1]
  IC50: 20.5 µM (active)
Vero [2]
  CC50: 21.5 µM (active)

## O=C(c1ccncc1)N1CCN(c2cc(-c3ccccc3)nc3cc(-c4cccc(Cl)c4)nn23)CC1
[3]
  EC50: 1.19 µM (active)
[4]
  EC50: 950 nM (active)

## O=C(c1ccccc1)N1CCN(c2cc(-c3ccccc3)nc3cc(-c4cccc(Cl)c4)nn23)CC1
[3]
  EC50: 1.05 µM (active) and 1.81 µM (active)
[4]
  EC50: 2.26 µM (active) and 4 µM (active)

## CN(C)C(=S)N=c1ssc(=S)n1Cc1cccnc1
HEK293 [5]
  EC50: > 59.6 µM (inactive)
HEK293 [6]
  EC50: > 59.6 µM (inactive)

## COc1cc(OC)c(-c2nn3c(C4CCCCC4)nnc3s2)cc1OC
[7]
  CC50: 33.1 µM (active)
HEK293 [5]
  EC50: > 59.6 µM (inactive)
HEK293 [6]
  EC50: > 59.6 µM (inactive)

## Nc1c(N(CCC2=CCCCC2)C(=O)COc2ccc([N+](=O)[O-])cc2)c(=O)[nH]c(=O)n1Cc1ccccc1
[8]
  AC50: 14.2 µM (active)

## Cc1ccc(Cn2c(C(C)Nc3nc(-c4ccc(C)cc4)cs3)nc3cc(Cl)c(Cl)cc32)cc1 (centres undefined)
[9]
  IC50: 4.57 µM (active)
[10]
  IC50: > 50 µM (inactive)
Beta-lactamase [11]
  IC50: > 59.6 µM (inactive)
Beta-lactamase [12]
  IC50: > 59.6 µM (inactive)
[13]
  IC50: > 66.6 µM (inactive)
[14]
  IC50: 3.52 µM (active)

## Cc1ccc(S(=O)(=O)N2CCN(C(=O)Cn3cnc4c3c(=O)n(C)c(=O)n4C)CC2)cc1C
[15]
  IC50: 21.5 µM (inactive)

## O=C(Nc1cccnc1)c1ccc(Oc2ccccc2)cc1
[16]
  AC50: 0.751 µM (active)

## CC(C)(C)[S@+]([O-])N1Cc2cc(C(=O)NCc3ccccc3F)nc(-c3cccc(-c4cccnc4)c3)c2[C@@H]1CCO
[16]
  AC50: 9.55 µM (active)

## COc1ccc(CN2CCN(C(=O)c3ccco3)CC2)c(OC)c1OC
Mu-type opioid receptor
  EC50: 92.5 µM (inactive)
[17]
  EC50: 6.39 µM (active)

## CCOc1ccc2nc(NC3=NC(C)=CC(C)(C)N3)nc(C)c2c1
[18]
  IC50: 3.25 µM (active)
[19]
  IC50: 6.46 µM (active)
[20]
  IC50: > 20 µM (inactive)

## CC(N)Cc1c[nH]c2ccc(Cl)cc12 (centres undefined)
Mu-type opioid receptor
  EC50: 92.5 µM (inactive)
[17]
  EC50: 1.64 µM (active)

## CN(c1ccc(OCC(=O)Nc2ccccc2C(=O)O)cc1)S(=O)(=O)c1ccc(Cl)cc1
Vero [1]
  IC50: 20.1 µM (active)

## CCSc1ccccc1C(=O)n1nnc2ccccc21
[8]
  AC50: 11.8 µM (active)

## O=C(O)c1cccnc1Nc1ccc(Cl)cc1
[7]
  CC50: 14.7 µM (active)
Vero [1]
  IC50: 17.3 µM (active)
cells
  IC50: 7.51 µM (active)

## O=C(CNc1cc(S(=O)(=O)N2CCCC2)ccc1OCC(F)(F)F)Nc1ccc(SC(F)F)cc1
[18]
  IC50: 2.54 µM (active)
[19]
  IC50: 1.85 µM (active)
Fatty acid synthase [21]
  IC50: 6.37 µM (active)
Fatty acid synthase [22]
  IC50: 2.98 µM (active)

## CCNC(=O)C[C@H]1CC[C@@H]2[C@@H](COc3ccc(NC(=O)Nc4cccc(F)c4)cc3C(=O)N2C)O1
[16]
  AC50: 4.35 µM (active)

## CN1CCC(N(C)S(=O)(=O)c2ccc(NC(=O)COc3ccc(Br)cc3Cl)cc2)CC1
[23]
  IC50: 10.4 µM (active)
[24]
  IC50: 14.2 µM (active)

## Clc1ccc(CN2CCN(c3ccccc3)CC2)cn1
Mu-type opioid receptor
  EC50: 92.5 µM (inactive)
[17]
  EC50: 5.22 µM (active)

## O=C(c1ccccc1)N1CCN(c2cc(-c3ccccc3)nc3cc(-c4cccc(F)c4)nn23)CC1
[3]
  EC50: 2.41 µM (active)
[4]
  EC50: 5820 nM (active)
